Consider ten compounds from patent US8697727B2, “N-substituted-heterocycloalkyloxybenzamide compounds and methods of use” (Rigel Pharmaceuticals, Inc., priority 2006, dated 2014).

Type in all cases: cell-based
Assay [1] relates to AMPK. In words: AMPK activation, enzyme-linked immunosorbent assay. The method in brief: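 Each compound's EC50 for AMPK activation was the endpoint. In a cell-based assay, AMPK activity was read out as the relative concentration of phosphorylated acetyl-CoA carboxylase, a product of AMPK, measured by enzyme-linked immunosorbent assay. Values fell into the ranges less than 1 μM, 1-10 μM, 10-20 μM, 20-50 μM, 50-100 μM, and >100 μM.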

Assay [2] has as its system AMPK. In words: Western blot assay for AMPK activity. Particulars: gel electrophoresis data relative to GST-gAd (FIG. 3). How it is done: Western blot assays for AMPK activity were performed on compounds 1, 2, 94 and 95. FIG. 3 presents gel electrophoresis data for compounds 1, 2, 94 and 95 relative to GST-gAd.
(In western blotting, separated proteins are transferred to a membrane and probed.)

For assay [3], the system named is Human liver cells (HepG2). In words: Reduction of glycogen content in liver cells (Amplex Red). The conditions noted are these: HepG2 cells treated for 16 hours, Amplex Red (FIG. 4). How it is done: The ability of compounds of the present invention to reduce the glycogen content in liver cells was determined using a functional assay. Human liver cells (HepG2) were seeded in a 96 well plate and on the next day were treated with compounds 1, 2, 94 and 95 for 16 hours. The glycogen content of the cells was determined using Amplex Red.

For `COc1ccc(CN2CCC(Oc3ccc(C(=O)NC4CCN(Cc5ccccc5)CC4)cc3Cl)CC2)cc1` [Compound 1, N-(1-benzylpiperidin-4-yl)-3-chloro-4-(1-(4-methoxybenzyl)piperidin-4-yloxy)benzamide], in the assay with AMPK [1], the EC50 (usually the midpoint of the concentration-response curve) was less than 1 µM. For the same compound, the “AMPK activity in the western blot assay” value in the assay with AMPK [2] is “strong activity”. In addition, the “IC50 value, glycogen content” value in assay [3] is “sub-micromolar”. The matching figures for `COc1cc(C(=O)NC2CCN(Cc3ccccc3)CC2)ccc1OC1CCN(Cc2ccccc2)CC1` [Compound 2, N-(1-benzylpiperidin-4-yl)-4-(1-benzylpiperidin-4-yloxy)-3-methoxybenzamide]: less than 1 µM, “strong activity” and “sub-micromolar”. The like results for `COc1cc(C(=O)NCCCNC(=O)OC(C)(C)C)ccc1OC1CCN(Cc2ccc(C(F)(F)F)cc2)CC1` [Compound 94, tert-butyl 3-(3-methoxy-4-(1-(4-(trifluoromethyl)benzyl)piperidin-4-yloxy)benzamido)propylcarbamate] were, in that order, less than 1 µM, “strong activity” and “sub-micromolar”. The matching figures for `CC(C)(C)OC(=O)NCCCNC(=O)c1ccc(OC2CCN(Cc3ccc(C(F)(F)F)cc3)CC2)cc1` [Compound 95, tert-butyl 3-(4-(1-(4-(trifluoromethyl)benzyl)piperidin-4-yloxy)benzamido)propylcarbamate]: less than 1 µM, “strong activity” and “sub-micromolar”. As to `O=C(NCCCN1CCOCC1)c1ccc(OC2CCN(Cc3ccc(Cl)cc3)CC2)cc1` [Compound 100, 4-(1-(4-chlorobenzyl)piperidin-4-yloxy)-N-(3-morpholinopropyl)benzamide], in the assay on AMPK [1], the EC50 fell in the range of 1 to 10 µM. Still for that read-out and setting: as for `COc1ccc(CN2CCC(Oc3ccc(C(=O)NCCCN4CCOCC4)cc3Cl)CC2)cc1` [Compound 101, 3-chloro-4-(1-(4-methoxybenzyl)piperidin-4-yloxy)-N-(3-morpholinopropyl)benzamide], the figure is 10 to 20 µM; as for `CC(C)(C)OC(=O)NCCCNC(=O)c1ccc(OC2CCN(Cc3ccccc3)CC2)c(Cl)c1` [Compound 102, tert-butyl 3-(4-(1-benzylpiperidin-4-yloxy)-3-chlorobenzamido)propylcarbamate], 10 to 20 µM. Take `O=C(c1ccc(OC2CCN(Cc3ccccc3)CC2)cc1)N1CCN(c2ccccc2)CC1` [Compound 103, (4-(1-benzylpiperidin-4-yloxy)phenyl)(4-phenylpiperazin-1-yl)methanone]: in the assay with AMPK [1], the EC50 is 20 to 50 µM. Still for that read-out and setting: as for `Cc1ccc(CN2CCC(Oc3ccc(C(=O)NCCCN4CCOCC4)cc3)CC2)cc1` [Compound 104, 4-(1-(4-methylbenzyl)piperidin-4-yloxy)-N-(3-morpholinopropyl)benzamide], the figure is 10 to 20 µM.

Regarding `O=C(c1ccc(OC2CCN(Cc3ccccc3)CC2)cc1)N1CCN(Cc2ccccn2)CC1` [Compound 105, (4-(1-benzylpiperidin-4-yloxy)phenyl)(4-(pyridin-2-ylmethyl)piperazin-1-yl)methanone], in the assay with AMPK [1], the concentration for a half-maximal effect (EC50) was in the range of 10 to 20 µM.
